Experimental findings from ChEMBL document CHEMBL5465560, “Selectivity Literature for EUbOPEN Chemogenomic Library” (2024) are described below.

Data set [1] has as its target Receptor-interacting serine/threonine-protein kinase 2 (Homo sapiens, UniProt O43353). Put plainly: Selectivity interaction (LanthaScreen Eu Kinase Binding Assay) EUB0001632a RIPK2. The conditions noted are these: at 10 µM. (In general: In TR-FRET formats the signal depends on donor and acceptor labels being close together.)
In data set [2] the target is Serine/threonine-protein kinase 32B (Homo sapiens) (UniProt Q9NY57). Put plainly: Selectivity interaction (LanthaScreen Eu Kinase Binding Assay) EUB0001632a STK32B. The conditions noted are these: at 10 µM.
Data set [3] addresses Cyclin-dependent kinase 12 (Homo sapiens, UniProt Q9NYV4). Put plainly: Selectivity interaction (ActivX KiNativ screen (kinase selectivity in THP-1 cell lysates)) EUB0000639a CDK12. In kind it is subcellular. The note with it: lysate.
Data set [4] deals with T1, Phosphorylase b kinase gamma catalytic chain, liver/testis isoform (Homo sapiens) (UniProt P15735).
T1 sequence (whole entry): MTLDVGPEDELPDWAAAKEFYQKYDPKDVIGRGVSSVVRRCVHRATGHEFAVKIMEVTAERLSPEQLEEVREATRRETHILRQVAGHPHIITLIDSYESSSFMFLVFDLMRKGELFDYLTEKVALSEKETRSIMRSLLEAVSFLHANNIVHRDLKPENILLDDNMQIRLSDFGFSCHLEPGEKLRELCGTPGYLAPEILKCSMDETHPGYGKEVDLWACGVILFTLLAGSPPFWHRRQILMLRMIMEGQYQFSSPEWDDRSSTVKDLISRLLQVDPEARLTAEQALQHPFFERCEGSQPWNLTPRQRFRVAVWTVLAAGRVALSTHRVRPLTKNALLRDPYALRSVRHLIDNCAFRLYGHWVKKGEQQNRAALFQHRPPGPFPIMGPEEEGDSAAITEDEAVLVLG
Put plainly: Selectivity interaction (Kinase panel (Invitrogen)) EUB0000639a PHKG2. The note with it: at 200 nM.

Data set [5] addresses T2, Serine/threonine-protein kinase D3 (Homo sapiens) (UniProt O94806).
T2 sequence (whole entry): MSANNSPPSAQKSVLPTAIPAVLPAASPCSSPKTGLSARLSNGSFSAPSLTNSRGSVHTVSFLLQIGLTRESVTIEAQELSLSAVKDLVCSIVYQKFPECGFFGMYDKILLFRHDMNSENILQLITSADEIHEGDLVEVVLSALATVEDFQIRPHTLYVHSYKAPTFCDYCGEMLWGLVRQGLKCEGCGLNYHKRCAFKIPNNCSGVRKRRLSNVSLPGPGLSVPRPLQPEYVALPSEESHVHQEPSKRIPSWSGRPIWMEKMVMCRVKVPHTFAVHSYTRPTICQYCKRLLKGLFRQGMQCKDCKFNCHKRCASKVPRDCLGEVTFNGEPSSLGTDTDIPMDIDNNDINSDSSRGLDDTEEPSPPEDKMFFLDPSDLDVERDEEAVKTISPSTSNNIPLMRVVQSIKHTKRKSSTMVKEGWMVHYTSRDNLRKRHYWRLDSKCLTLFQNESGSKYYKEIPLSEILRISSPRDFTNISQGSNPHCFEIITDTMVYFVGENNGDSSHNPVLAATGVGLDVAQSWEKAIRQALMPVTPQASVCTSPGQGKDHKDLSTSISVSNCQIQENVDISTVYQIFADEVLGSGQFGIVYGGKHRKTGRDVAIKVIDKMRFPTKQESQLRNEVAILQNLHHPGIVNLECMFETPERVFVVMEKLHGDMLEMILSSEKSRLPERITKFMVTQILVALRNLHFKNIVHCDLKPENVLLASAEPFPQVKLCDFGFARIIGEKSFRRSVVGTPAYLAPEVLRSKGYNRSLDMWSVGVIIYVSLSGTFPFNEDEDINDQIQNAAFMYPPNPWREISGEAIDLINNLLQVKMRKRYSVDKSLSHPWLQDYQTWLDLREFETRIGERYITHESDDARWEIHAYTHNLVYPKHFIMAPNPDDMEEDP
Put plainly: Selectivity interaction (ActivX KiNativ screen (kinase selectivity in THP-1 cell lysates)) EUB0000639a PRKD3. In kind it is subcellular. The note with it: lysate.

In data set [6] the target is SRSF protein kinase 3 (Homo sapiens) (UniProt Q9UPE1). Put plainly: Selectivity interaction (KinomeScan (DiscoverX)) EUB0000045b SRPK3.
Data set [7] deals with 5-hydroxytryptamine receptor 2A (Homo sapiens, UniProt P28223). Put plainly: Selectivity interaction (Safety Panel 44tm (Eurofins)) EUB0000162b HTR2A. The conditions noted are these: at 10 µM.
The target of data set [8] is MAP kinase-interacting serine/threonine-protein kinase 1 (Homo sapiens) (UniProt Q9BUB5). Put plainly: Selectivity interaction (Ambit KINOMEscan and KiNATiv profiling in Jurkat cells) EUB0000090b MKNK1. In kind it is cell-based. The note with it: at 1 µM.
The target of the next data set is hERG (KCNH2) (Homo sapiens, UniProt Q12809). Put plainly: Selectivity interaction (Panel of kinases, GPCRs, ion channels and transporters (enzymatic assay)) EUB0000223bCl KCNH2.
The target in data set [9] is Interleukin-1 receptor-associated kinase 1 (Homo sapiens) (UniProt P51617). Put plainly: Selectivity interaction (Upstate Kinase Profiler service (Millipore)) EUB0000056c IRAK1. The note with it: at 1 µM.
Data set [10] concerns the target Bone morphogenetic protein receptor type-1A (Homo sapiens, UniProt P36894). Put plainly: Selectivity interaction (KinomeScan (DiscoverX)) EUB0000655a BMPR1A. The conditions noted are these: at 10 µM.
The target in data set [11] is Mitogen-activated protein kinase 9 (Homo sapiens, UniProt P45984). Put plainly: Selectivity interaction (KinomeScan (DiscoverX)) EUB0000092b MAPK9. The note with it: at 10 µM.
In data set [12] the target is Rho-associated protein kinase 1 (Homo sapiens) (UniProt Q13464). Put plainly: Selectivity interaction (KinomeScan (DiscoverX)) EUB0001079a ROCK1. The note with it: at 1 µM.
For another data set, the target named is D(2) dopamine receptor (Homo sapiens, UniProt P14416). Put plainly: Selectivity interaction (Panel of kinases, GPCRs, ion channels and transporters (enzymatic assay)) EUB0000266bCl DRD2.

Cyclin-dependent kinase 12, sequence (Q9NYV4 whole entry, looked up, canonical isoform): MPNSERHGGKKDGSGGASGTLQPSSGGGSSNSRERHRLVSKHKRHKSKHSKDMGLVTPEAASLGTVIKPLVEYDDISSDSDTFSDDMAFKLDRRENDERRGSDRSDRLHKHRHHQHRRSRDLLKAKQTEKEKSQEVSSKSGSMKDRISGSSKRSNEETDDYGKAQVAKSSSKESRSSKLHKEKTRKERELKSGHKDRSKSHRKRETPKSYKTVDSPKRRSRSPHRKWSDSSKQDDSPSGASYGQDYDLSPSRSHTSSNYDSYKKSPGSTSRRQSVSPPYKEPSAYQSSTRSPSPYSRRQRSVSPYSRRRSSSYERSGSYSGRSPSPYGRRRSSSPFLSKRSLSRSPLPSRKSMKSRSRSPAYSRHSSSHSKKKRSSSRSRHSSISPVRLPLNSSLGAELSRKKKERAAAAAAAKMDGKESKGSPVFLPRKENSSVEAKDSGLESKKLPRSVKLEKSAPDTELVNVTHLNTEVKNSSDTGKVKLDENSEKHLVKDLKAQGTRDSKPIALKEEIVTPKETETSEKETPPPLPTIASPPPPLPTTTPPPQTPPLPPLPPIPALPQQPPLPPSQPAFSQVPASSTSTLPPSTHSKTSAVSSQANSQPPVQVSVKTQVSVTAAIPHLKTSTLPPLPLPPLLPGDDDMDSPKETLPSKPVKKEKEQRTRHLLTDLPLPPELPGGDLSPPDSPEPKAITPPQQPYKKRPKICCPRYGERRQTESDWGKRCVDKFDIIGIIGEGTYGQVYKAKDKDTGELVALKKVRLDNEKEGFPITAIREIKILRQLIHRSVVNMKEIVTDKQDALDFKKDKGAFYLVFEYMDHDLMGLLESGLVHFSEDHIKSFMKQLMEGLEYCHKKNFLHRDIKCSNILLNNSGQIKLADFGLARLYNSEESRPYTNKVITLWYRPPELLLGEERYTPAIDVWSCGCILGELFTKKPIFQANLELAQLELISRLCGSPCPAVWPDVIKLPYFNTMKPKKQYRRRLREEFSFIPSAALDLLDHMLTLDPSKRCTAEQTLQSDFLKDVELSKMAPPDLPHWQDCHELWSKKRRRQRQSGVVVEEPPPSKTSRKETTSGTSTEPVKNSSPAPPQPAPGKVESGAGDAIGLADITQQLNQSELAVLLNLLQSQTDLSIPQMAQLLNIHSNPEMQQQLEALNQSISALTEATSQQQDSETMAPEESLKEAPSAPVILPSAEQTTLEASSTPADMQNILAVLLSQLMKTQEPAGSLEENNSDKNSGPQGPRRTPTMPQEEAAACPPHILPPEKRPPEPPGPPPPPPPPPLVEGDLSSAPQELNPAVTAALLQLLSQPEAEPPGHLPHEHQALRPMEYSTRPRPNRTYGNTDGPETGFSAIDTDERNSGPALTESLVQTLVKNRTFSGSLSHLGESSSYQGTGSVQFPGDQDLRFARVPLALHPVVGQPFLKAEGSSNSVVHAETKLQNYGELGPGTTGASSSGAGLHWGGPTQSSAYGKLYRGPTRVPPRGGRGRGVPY
SRSF protein kinase 3 (Homo sapiens), sequence (Q9UPE1 whole entry): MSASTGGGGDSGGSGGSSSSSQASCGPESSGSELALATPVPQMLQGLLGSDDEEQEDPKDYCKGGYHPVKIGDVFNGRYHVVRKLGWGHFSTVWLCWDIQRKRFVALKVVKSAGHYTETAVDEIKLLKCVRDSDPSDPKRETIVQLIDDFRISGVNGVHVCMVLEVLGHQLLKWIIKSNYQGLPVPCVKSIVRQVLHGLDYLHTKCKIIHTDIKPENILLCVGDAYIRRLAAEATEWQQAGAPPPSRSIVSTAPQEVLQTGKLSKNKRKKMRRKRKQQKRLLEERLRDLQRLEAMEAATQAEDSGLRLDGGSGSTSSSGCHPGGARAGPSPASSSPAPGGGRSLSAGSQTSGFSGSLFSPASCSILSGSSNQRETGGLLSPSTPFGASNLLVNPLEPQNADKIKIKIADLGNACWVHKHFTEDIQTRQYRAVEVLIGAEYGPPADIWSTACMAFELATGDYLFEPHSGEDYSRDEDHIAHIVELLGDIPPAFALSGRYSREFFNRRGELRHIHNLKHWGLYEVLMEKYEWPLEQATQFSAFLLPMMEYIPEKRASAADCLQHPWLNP
Receptor-interacting serine/threonine-protein kinase 2, sequence (O43353 whole entry): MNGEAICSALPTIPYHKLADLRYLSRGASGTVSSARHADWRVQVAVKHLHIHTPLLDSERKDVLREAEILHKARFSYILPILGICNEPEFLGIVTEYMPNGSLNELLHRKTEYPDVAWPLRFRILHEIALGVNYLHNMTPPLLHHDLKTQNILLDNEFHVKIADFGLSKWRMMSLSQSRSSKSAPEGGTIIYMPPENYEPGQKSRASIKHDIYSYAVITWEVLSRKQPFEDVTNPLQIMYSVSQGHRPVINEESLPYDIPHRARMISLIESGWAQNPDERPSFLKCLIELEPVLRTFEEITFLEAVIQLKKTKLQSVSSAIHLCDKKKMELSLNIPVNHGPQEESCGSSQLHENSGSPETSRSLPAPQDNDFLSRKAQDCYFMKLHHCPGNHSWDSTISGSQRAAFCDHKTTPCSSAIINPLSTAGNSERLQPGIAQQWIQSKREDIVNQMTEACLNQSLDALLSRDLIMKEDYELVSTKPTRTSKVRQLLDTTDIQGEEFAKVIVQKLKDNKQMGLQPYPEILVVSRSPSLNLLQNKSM
MAP kinase-interacting serine/threonine-protein kinase 1 (Homo sapiens), sequence (Q9BUB5 whole entry, looked up): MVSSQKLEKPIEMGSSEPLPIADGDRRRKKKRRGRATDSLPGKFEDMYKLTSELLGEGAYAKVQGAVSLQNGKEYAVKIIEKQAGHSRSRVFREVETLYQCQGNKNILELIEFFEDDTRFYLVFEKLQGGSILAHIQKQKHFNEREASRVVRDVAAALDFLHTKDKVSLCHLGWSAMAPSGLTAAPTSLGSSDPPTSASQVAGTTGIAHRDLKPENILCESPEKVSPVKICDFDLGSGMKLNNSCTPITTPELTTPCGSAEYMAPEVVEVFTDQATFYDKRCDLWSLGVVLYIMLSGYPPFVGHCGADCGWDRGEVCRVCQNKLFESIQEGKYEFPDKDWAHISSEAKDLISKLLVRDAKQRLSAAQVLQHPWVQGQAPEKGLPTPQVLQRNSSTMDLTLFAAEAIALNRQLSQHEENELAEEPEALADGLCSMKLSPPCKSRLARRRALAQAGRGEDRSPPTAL
hERG (KCNH2), sequence (Q12809 whole entry): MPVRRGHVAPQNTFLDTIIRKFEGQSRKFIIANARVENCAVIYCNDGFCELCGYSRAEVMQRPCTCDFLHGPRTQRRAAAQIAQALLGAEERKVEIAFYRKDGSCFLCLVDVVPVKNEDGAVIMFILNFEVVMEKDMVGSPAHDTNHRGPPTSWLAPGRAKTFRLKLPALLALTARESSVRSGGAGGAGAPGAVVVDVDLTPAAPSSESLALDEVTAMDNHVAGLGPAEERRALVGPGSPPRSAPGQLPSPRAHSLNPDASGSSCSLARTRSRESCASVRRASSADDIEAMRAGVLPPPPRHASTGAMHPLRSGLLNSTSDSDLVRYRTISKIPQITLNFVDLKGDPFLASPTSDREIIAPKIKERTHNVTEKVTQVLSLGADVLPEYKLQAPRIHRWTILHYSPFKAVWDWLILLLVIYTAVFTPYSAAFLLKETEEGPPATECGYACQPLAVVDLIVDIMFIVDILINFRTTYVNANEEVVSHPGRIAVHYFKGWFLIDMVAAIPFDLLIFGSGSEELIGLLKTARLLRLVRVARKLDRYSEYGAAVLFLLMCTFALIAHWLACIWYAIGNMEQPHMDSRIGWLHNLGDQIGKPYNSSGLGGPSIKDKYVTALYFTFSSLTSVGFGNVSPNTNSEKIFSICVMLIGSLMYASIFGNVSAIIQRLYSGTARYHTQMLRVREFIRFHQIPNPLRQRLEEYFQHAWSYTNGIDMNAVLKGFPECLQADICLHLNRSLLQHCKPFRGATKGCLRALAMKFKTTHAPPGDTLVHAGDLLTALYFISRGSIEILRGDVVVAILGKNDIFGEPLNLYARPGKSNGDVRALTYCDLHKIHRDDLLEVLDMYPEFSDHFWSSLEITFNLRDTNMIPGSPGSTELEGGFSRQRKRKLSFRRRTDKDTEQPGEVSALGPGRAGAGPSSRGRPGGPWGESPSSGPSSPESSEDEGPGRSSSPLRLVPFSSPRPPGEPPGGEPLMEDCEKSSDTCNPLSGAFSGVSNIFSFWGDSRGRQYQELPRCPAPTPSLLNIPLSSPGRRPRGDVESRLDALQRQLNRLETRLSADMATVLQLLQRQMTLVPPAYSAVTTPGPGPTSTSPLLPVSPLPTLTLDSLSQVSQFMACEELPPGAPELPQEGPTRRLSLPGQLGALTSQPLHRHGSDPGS
Bone morphogenetic protein receptor type-1A, sequence (P36894 whole entry): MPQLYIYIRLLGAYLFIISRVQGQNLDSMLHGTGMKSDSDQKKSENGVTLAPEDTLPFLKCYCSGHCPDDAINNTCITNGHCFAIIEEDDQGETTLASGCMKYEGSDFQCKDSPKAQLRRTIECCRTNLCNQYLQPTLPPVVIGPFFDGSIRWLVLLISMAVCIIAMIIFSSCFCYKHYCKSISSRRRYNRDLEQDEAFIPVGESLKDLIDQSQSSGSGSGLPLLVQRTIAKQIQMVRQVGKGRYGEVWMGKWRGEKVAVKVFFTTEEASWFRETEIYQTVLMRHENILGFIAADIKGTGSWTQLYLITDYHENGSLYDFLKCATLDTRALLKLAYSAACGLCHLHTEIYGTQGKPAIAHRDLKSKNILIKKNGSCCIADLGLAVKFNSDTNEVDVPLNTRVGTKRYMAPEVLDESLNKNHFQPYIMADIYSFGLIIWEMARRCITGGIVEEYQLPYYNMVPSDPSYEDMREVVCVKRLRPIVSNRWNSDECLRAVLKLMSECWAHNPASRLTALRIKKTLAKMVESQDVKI

As for `Cn1cc(-n2cnc3c(NCc4nc5cc(Cl)c(Cl)cc5[nH]4)nc(N4CCOCC4)nc32)cn1`, the % of inhibition is -13.3% in [1] and -8.62% in data set [2].
As to `CC[C@@H]1[C@H](F)C(=O)N[C@@H]1COc1nccc2cc(C(N)=O)c(OC)cc12` [ZIMLOVISERTIB], the % of inhibition was -24.7% in [3] (at 0.01 µM); -15% in [3] (at 0.04 µM); -4.7% in data set [3] (at 0.2 µM); -15.6% in [3] (at 1 µM); -19.6% in data set [3] (at 5 µM); 24.7% in data set [4]. Moreover, the % of inhibition was -8.3% in data set [5] (at 0.01 µM); -5.9% in [5] (at 0.04 µM); -13.7% in data set [5] (at 0.2 µM); 3.6% in data set [5] (at 1 µM); -22.1% in data set [5] (at 5 µM).
Turning to `C=CC(=O)Nc1cc(-n2c(=O)ccc3cnc4ccc(-c5ccc(NS(C)(=O)=O)cc5)cc4c32)ccc1C`, the figures for the % of control in data set [6] (at 1 µM) and in data set [6] (at 10 µM) were 100% and 67%, respectively.
On to `CN(C)C(=O)Cn1cc(-c2ccc(-c3cncc4ccccc34)cc2)cn1`, for which, in [7], the % of control was determined as 87%.
Take `CN(C)C/C=C/C(=O)Nc1ccc(C(=O)N2CCCC(Nc3ncc(Cl)c(-c4c[nH]c5ccccc45)n3)C2)cc1` (stereo not drawn): the % of control in data set [8] came to 100%.
On hERG (KCNH2), `COc1cc(C(=O)N2CC[C@@H](O)[C@@H](N)C2)cc2nc(-c3cc4ccccc4n3CC3CC3)n(C)c12` had an XC50 of 31.6 µM.
In the case of `Cc1ccc(-c2ccc3c(ccc4sc5c(c43)NC[C@@H](C)NC5=O)n2)cn1`, the % of inhibition in data set [9] was 22%.
`CN(C)CCOc1ccc(-c2nc(-c3ccncc3)c(-c3ccc4c(c3)CC/C4=N\O)[nH]2)cc1` returned a % of control in data set [10] of 100%.
With `CCC(=O)N1CCN(c2ccc(-n3c(=O)ccc4cnc5ccc(-c6cnc7ccccc7c6)cc5c43)cc2C(F)(F)F)CC1`, in [11], the % of control was 40%.
On to `Nc1cnc(N2CCc3cc(S(=O)(=O)Nc4c(F)cc(Cl)cc4F)cc(N4CCCC4=O)c32)nc1` [TP-020n], for which, in data set [12], the % of control was 96%.
`CCn1c(-c2nc3cc(C(=O)N4CCCC(N)C4)ccc3n2C)cc2ccccc21` (stereo not drawn) displayed a pXC50 at D(2) dopamine receptor of less than 4 M.
